Test results: patent US9198416B2, “Method for enhancing drought tolerance in plants” (Plant Response Biotech S.L., priority 2013, dated 2015)

How the values were obtained:
Format in all cases: in vivo
'Murano' pepper = test: Pepper plant survival under extreme drought; conditions: 10 g/L and 1 g/L sprayed, irrigation with water (as worded)
Experimental: (§1) For each wilting or limited water experiment 480 seeds (of either pepper, barley, tomato, cucumber or corn) were sown, producing 384 plants in 512 cm^3 pots (4 plants per pot). Plants were grown under chamber conditions at 21° C. for 3 weeks. Then, the plants were moved to a greenhouse, where average temperature was 25° C. to 28° C. Treatments as described herein were done when the plants had two extended leaves and the next pair of leaves were coming up.
Twelve (12) pots (containing 48 plants) were irrigated with 40 ml of either: water, 0.1 g/L TMAO di-hydrate solution, 1.0 g/L TMAO di-hydrate solution, or 5.5 g/L TMAO di-hydrate solution. […] All pots were also watered with 40 ml of water. […]
(§2) After the treatments described above, the plants were not watered until the pots completely lost their moisture, taking about 4 to 8 days depending on the season, at which point the plants were extremely wilted for the extreme drought experiments. […] The plant survival rate was recorded and analyzed for the “extreme drought” experiments in which plants were allowed to wilt severely before watering, while the stem length was recorded as analyzed for the limited water experiments in which the plants are watered with 30% of the water that the plant requires. […]

'Rio Grande' tomato = test: Tomato fruit production under limited water irrigation; conditions: 30% water irrigation, 1 g/L TMAO spray every 4 weeks
Experimental: as §1
(§3) After the treatments described above, the plants were not watered until the pots completely lost their moisture, taking about 4 to 8 days depending on the season, at which point the plants were extremely wilted for the extreme drought experiments. The plants were then watered once with solutions containing the different amounts of TMAO di-hydrate described above (0.1 g/L, 1.0 g/L or 5.5 g/L) or just water, after which the plants were left to lose their moisture completely again for three consecutive cycles of watering after wilting. […] The plant survival rate was recorded and analyzed for the “extreme drought” experiments in which plants were allowed to wilt severely before watering, while the stem length was recorded as analyzed for the limited water experiments in which the plants are watered with 30% of the water that the plant requires. […]

[1] = system: tomato 'Moneymaker' seeds; test: Tomato seed germination under PEG-6000 simulated drought; conditions: 10 days
Experimental: In order to determine the drought or water stress tolerance after seed treatments with TMAO di-hydrate and germination in the presence of TMAO di-hydrate, tomato ‘Moneymaker’ seeds were surface sterilized for 3 minutes in ethanol 70%, then rinsed twice and finally included in a pre-treatment solution of 0.1 g/L TMAO di-hydrate solution (or just water) under shaking for 3 hours. Then, they were rinsed and included in the germination plates under sterile conditions. Polyethylene glycol (PEG-6000) was added to the germination medium (Murashige and Skoog salts medium) at 152 and 182 g/L. The increasing amount of PEG reduces ψ (hydric potential) values, simulating drought conditions for germination. Each germination plate had at least 30 seeds, and each treatment/pretreatment plate was replicated five times (150 seeds per treatment/pretreatment). Seeds were left to germinate for 10 days under dark conditions in a culture chamber (21° C. light and 20° C. night, 65% humidity). Then, germinated seeds were recorded by visual inspection and data analysis was performed using Statgraphics software.
TMAO di-hydrate applied exogenously increases germination both in pre-treatment of the seeds and as an additive to the medium. Tomato ‘Moneymaker’ seeds were sown, grown and treated as described above.

[2] = TMAO content in pepper leaves by NMR after TMAO spray; conditions: 1 g/l spray
Experimental: as §1
(§4) TMAO content in plants was determined by harvesting three leaves per treatment and freezing them in liquid nitrogen before the NMR determination. At least three independent plants were treated per experiment.
(§5) TMAO accumulates in pepper and barley when applied exogenously. ‘Murano’ pepper seeds and ‘Bomi’ barley seeds were sown and grown as described above. Control plants (six weeks old) were sprayed with water and pepper treated plants were sprayed with 1 g/l of TMAO while barley plants were sprayed with 1 g/l of TMAO formulated with 0.1% of C8-C10 Alkylpolysaccharide. Leaves were harvested and TMAO was determined by NMR. The percentage of TMAO increase compared to untreated controls was determined for each time point. TMAO levels increase in pepper and barley with exogenous treatment of TMAO at 1 g/l to higher levels than drought treatment and furthermore, the TMAO levels are high up to 40 days post spray in pepper.

Moneymaker tomato = test: Tomato plant survival under extreme drought; conditions: higher test rates, both treatments (sprayed or watered)
Experimental: as §1
Twelve (12) pots (containing 48 plants) were irrigated with 40 ml of either: water, 0.1 g/L TMAO di-hydrate solution, 1.0 g/L TMAO di-hydrate solution, or 5.5 g/L TMAO di-hydrate solution. […]
as §2

'FAO700' corn = test: Corn number of green leaves under limited water irrigation; conditions: 30% water, 1 g/L (Table 11 rows 3 and 4)
Experimental: as §1, §3

'TAO700' corn [3] = test: Corn number of grains per cob under limited water irrigation; conditions: 30% water, 1 g/L (Table 13 row 4)
Experimental: as §1, §3

'TAO700' corn [4] = test: Corn total chlorophyll content under limited water irrigation; conditions: 30% water
Experimental: as §1, §3

'Bomi' barley = test: Barley dry weight under drought / limited water irrigation; conditions: drought growing conditions
Experimental: as §1
Twelve (12) pots (containing 48 plants) were irrigated with 40 ml of either: water, 0.1 g/L TMAO di-hydrate solution, 1.0 g/L TMAO di-hydrate solution, or 5.5 g/L TMAO di-hydrate solution. Another set of 12 pots containing 48 plants were sprayed with 40 ml of either water (3.3 ml in average per pot), a solution containing 0.1 g/L TMAO di-hydrate solution, 1.0 g/L TMAO di-hydrate, or 5.5 g/L TMAO di-hydrate. All pots were also watered with 40 ml of water. The sprayed plants were watered with the same volume of water as the “irrigated plants) The pots were located on plastic glass to maintain constant moisture and to avoid liquid spillage during watering. Trays containing the pots were located on greenhouse tables. The distribution of the trays on the table and the position on the pots in the tray was changed every week to avoid position effects.
as §2

[5] = TMAO content in barley leaves by NMR after TMAO spray; conditions: 1 g/l spray formulated with 0.1% C8-C10 Alkylpolysaccharide, 1 day post spray
Experimental: as §1, §4, §5

[6] = system: 'Sabrina', 'Candonga' and 'Fortuna' variety strawberry plants; test: Strawberry fruit production under normal conditions (trade-off test); conditions: no water stress; for Strawberry fruit production % Control: 1 g/L spray every 4 weeks for 3 months
Experimental: In order to determine the plant fruit productivity under normal conditions, ‘Sabrina’, ‘Candonga’ and ‘Fortuna’ variety strawberry plants were grown under standard strawberry production conditions and 120 plants of each variety per treatment (where the treatment was a Control comprising standard watering or 1 g/L of TMAO spray every four weeks) were analyzed. Plants were located in four (4) different positions for each group of 30 plants from the same treatment. Fruits were harvested from individual plants and total weight was determined for each plant.
Fruit yield was determined in ‘Sabrina’, ‘Candonga’ and ‘Fortuna’ strawberry plants treated with 1 g/l of TMAO di-hydrate or water as described above in order to evaluate the trade-off costs of the treatment with no water stress.

For `C[N+](C)(C)[O-]` [TMAO, Trimethylamine N-oxide], the plant survival ('Murano' pepper) was 83.3%, the “AVERAGE WEIGTH (grams/fruit)” value ('Rio Grande' tomato) was 76.73 ± 17.67 grams/fruit and the “GERMINATION RATE” value ([1]; PEG 152 g/L (ψ −0.2564), 0.1 g/L in the germination medium) was 71.09 ± 4.26%. For the same compound, the “GERMINATION RATE” value ([1]; PEG 152 g/L (ψ −0.2564), seed pre-treatment 0.1 g/L solution 3 hours) was 70.62 ± 4.62%, the “GERMINATION RATE” value ([1]; PEG 182 g/L (ψ −0.3676), 0.1 g/L in the germination medium) was 45.00 ± 3.20% and the “GERMINATION RATE” value ([1]; PEG 182 g/L (ψ −0.3676), seed pre-treatment 0.1 g/L solution 3 hours) was 18.53 ± 3.20%. The “TMAO accumulation % Control” value ([2]; 1 day post spray, vs water-sprayed control) was 529 % Control, the “TMAO accumulation % Control” value ([2]; 10 days post spray) was 373 % Control and the “TMAO accumulation % Control” value ([2]; 20 days post spray) was 286 % Control. For the same compound, the “TMAO accumulation % Control” value ([2]; 30 days post spray) was 135 % Control, the “TMAO accumulation % Control” value ([2]; 40 days post spray) was 213 % Control and the “shoot dry mass compared with untreated plants” value (Moneymaker tomato) was “clear increase”. For the same compound, the “increase in green leaf production over untreated plants with 30% irrigation” value ('FAO700' corn) was 47%, the “increase in total number of grains per corn cob compared to 100% irrigation” value ('TAO700' corn [3]) was 2% and the “TOTAL CHLOROPHYL CONTENT” value ('TAO700' corn [4]; 1 g/L TMAO seed treatment) was 0.8977 ± 0.195. For the same compound, the “TOTAL CHLOROPHYL CONTENT” value ('TAO700' corn [4]; 1 g/L TMAO spray) was 0.7278 ± 0.076, the “AVERAGE DRY WEIGHT” value ('Bomi' barley; initial treatment 1 g/L sprayed solution, irrigations water) was 1205.4 ± 60.37 mg and the “AVERAGE DRY WEIGHT” value ('Bomi' barley; initial treatment 1 g/L watered solution, irrigations water) was 1371.4 ± 66.13 mg. The “AVERAGE DRY WEIGHT” value ('Bomi' barley; irrigations 1 g/L solution, initial treatments pooled) was 1216.1 ± 33.44 mg, the “TMAO accumulation % Control” value [5] was 822 % Control and the “difference in fruit production vs water” value ([6]; 1 g/l, three strawberry varieties) was “no significant difference”. The “Strawberry fruit production % Control” value ([6]; Candonga) was 102 % Control, the “Strawberry fruit production % Control” value ([6]; Fortuna) was 101 % Control and the “Strawberry fruit production % Control” value ([6]; Sabrina) was 106 % Control. For the same compound, the “Strawberry fruit production % Control” value ([6]; Total of the three varieties) was 105 % Control.
